Data reported in patent US9273057B2 (Bristol-Myers Squibb Company, priority 2012, dated 2016).
Counter-ions that a name gives are not always drawn.

Molecular target: CK2A1 (CK2α/β) (Homo sapiens, UniProt P68400)
Experiment: CK2 kinase assay, CK2A1 (CK2α/β)
Assay type: biochemical
Details: Table A; read-out: CK2A1 (CK2α/β) (IC50)

Chain of CK2A1 (CK2α/β) (P68400 whole entry, species assumed): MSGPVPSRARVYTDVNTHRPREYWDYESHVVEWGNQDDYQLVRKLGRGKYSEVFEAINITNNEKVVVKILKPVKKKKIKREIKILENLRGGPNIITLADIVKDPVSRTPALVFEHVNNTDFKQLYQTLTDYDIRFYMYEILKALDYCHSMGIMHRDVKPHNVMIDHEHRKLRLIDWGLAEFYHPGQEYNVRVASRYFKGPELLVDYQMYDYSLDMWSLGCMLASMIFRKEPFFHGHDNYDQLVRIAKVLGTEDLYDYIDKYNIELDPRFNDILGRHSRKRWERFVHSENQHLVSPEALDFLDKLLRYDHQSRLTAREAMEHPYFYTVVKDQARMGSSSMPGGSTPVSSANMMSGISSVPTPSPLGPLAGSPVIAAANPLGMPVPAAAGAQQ
Chain of CK2A1 (CK2α/β) (P67870 whole entry partner, species assumed): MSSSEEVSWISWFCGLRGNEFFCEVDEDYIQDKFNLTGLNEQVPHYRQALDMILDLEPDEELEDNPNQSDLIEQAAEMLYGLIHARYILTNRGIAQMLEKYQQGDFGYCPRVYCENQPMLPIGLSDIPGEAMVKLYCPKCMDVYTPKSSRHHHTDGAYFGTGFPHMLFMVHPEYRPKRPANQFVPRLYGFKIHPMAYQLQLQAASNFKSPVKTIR

Compound | IC50 [nM]
N#Cc1cc(Nc2nc(NC3CC3)c3ncc(C#N)n3n2)c(Cl)c(N2CCN(CC(O)CF)CC2=O)c1 (racemic) [Example 622, (+/−)-2-((2-chloro-5-cyano-3-(4-(3-fluoro-2-hydroxypropyl)-2-oxopiperazin-1-yl)phenyl)amino)-4-(cyclopropylamino)imidazo[2,1-f][1,2,4]triazine-7-carbonitrile] | 1.09
CN1CCN(c2cc(C#N)cc(Nc3nc(NC4CC4)c4ncc(C#N)n4n3)c2)C(=O)C1 [Example 629, 2-((3-cyano-5-(4-methyl-2-oxopiperazin-1-yl)phenyl)amino)-4-(cyclopropylamino)imidazo[2,1-f][1,2,4]triazine-7-carbonitrile] | 6
CCNc1nc(Nc2cc(C#N)cc(C3CCN(C4CN(S(C)(=O)=O)C4)CC3)c2Cl)nn2c(C#N)cnc12 [Example 355, 2-((2-chloro-5-cyano-3-(1-(1-(methylsulfonyl)-3-azetidinyl)-4-piperidinyl)phenyl)amino)-4-(ethylamino)imidazo[2,1-f][1,2,4]triazine-7-carbonitrile] | 5.23
CC(CC(C)N1CC(C)(O)C1)c1cc(Cl)c(Nc2nc(NC3CC3)c3ncc(C#N)n3n2)cc1C#N (stereo not drawn) [Example 736, 2-({2-chloro-5-cyano-4-[4-(3-hydroxy-3-methylazetidin-1-yl)pentan-2-yl]phenyl}amino)-4-(cyclopropylamino)imidazo [2,1-f][1,2,4]triazine-7-carbonitrile] | 4.86
CCNc1nc(Nc2cc(C#N)cc(N3CC[C@@H](NC(=O)OC)[C@H](OC(=O)[C@@H](NC(=O)[C@@H](N)CCCCN)C(C)C)C3)c2Cl)nn2c(C#N)cnc12 [Example 822, (S)-(3R,4R)-1-(2-chloro-5-cyano-3-((7-cyano-4-(ethylamino)imidazo[2,1-f][1,2,4]triazin-2-yl)amino)phenyl)-4-((methoxycarbonyl)amino)piperidin-3-yl 2-((S)-2,6-diaminohexanamido)-3-methylbutanoate dihydrochloride] | 1.74
CCNc1nc(Nc2cc(C#N)cc(N3CC[C@@H](NC(=O)OC)[C@H](OC(=O)CCCOP(=O)(O)O)C3)c2Cl)nn2c(C#N)cnc12 [Example 343, (3R,4R)-1-(2-chloro-5-cyano-3-((7-cyano-4-(ethylamino)imidazo[2,1-f][1,2,4]triazin-2-yl)amino)phenyl)-4-((methoxycarbonyl)amino)piperidin-3-yl 4-(phosphonooxy)butanoate] | 3
CCNc1nc(Nc2cc(C#N)cc(N3CCC(NC(=O)OC)CC3)c2Cl)nn2c(C#N)cnc12 [Example 330, methyl (1-(2-chloro-5-cyano-3-((7-cyano-4-(ethylamino)imidazo[2,1-f][1,2,4]triazin-2-yl)amino)phenyl)piperidin-4-yl)carbamate] | 0.55
CCNc1nc(Nc2cc(C#N)cc(N3CC[C@@H]4[C@@H](C3)OC(=O)N4[C@H]3CCOC3)c2Cl)nn2c(C#N)cnc12 (single isomer, unassigned) [Example 844] | 1.83
N#Cc1cnc2c(NC3CC3)nc(Nc3cc(C(F)F)cc(N4CCN(C5(CCO)COC5)CC4)c3Cl)nn12 [Example 270, 2-((2-chloro-5-(difluoromethyl)-3-(4-(3-(2-hydroxyethyl)-3-oxetanyl)-1-piperazinyl)phenyl)amino)-4-(cyclopropylamino)imidazo[2,1-f][1,2,4]triazine-7-carbonitrile] | 0.82
CCNc1nc(Nc2cc(C#N)cc(N3CCC(N(C)C4COC4)CC3)c2Cl)nn2c(C#N)cnc12 [Example 365, 2-((2-chloro-5-cyano-3-(4-(methyl(oxetan-3-yl)amino)piperidin-1-yl)phenyl)amino)-4-(ethylamino)imidazo[2,1-f][1,2,4]triazine-7-carbonitrile] | 3.28
CCNc1nc(Nc2cc(C#N)cc(N3CC[C@@H](NC(=O)OC)[C@H](OC(=O)[C@@H](N)C(C)C)C3)c2Cl)nn2c(C#N)cnc12 [Example 346, (S)-(3R,4R)-1-(2-chloro-5-cyano-3-((7-cyano-4-(ethylamino)imidazo[2,1-f][1,2,4]triazin-2-yl)amino)phenyl)-4-((methoxycarbonyl)amino)piperidin-3-yl 2-amino-3-methylbutanoate] | 2.03
CCNc1nc(Nc2cc(C#N)cc(N3CC[C@@H](NC(=O)OC)[C@H](OP(=O)(O)O)C3)c2Cl)nn2c(C#N)cnc12 [Example 337, methyl ((3R,4R)-1-(2-chloro-5-cyano-3-((7-cyano-4-(ethylamino)imidazo[2,1-f][1,2,4]triazin-2-yl)amino)phenyl)-3-(phosphonooxy)piperidin-4-yl)carbamate] | 16
CCNc1nc(Nc2cc(C#N)cc(N3CCC(NC)C3)c2Cl)nn2c(C#N)cnc12 (racemic) [Example 362, (+/−) 2-((2-chloro-5-cyano-3-(3-(methylamino)-1-pyrrolidinyl)phenyl)amino)-4-(ethylamino)imidazo[2,1-f][1,2,4]triazine-7-carbonitrile] | 0.84
N#Cc1cc(CCC2CNCCO2)c(Cl)c(Nc2nc(NC3CC3)c3ncc(C#N)n3n2)c1 (racemic) [Example 739, (+/−)-2-((2-chloro-5-cyano-3-(2-(morpholin-2-yl)ethyl)phenyl)amino)-4-(cyclopropylamino) imidazo[2,1-f][1,2,4]triazine-7-carbonitrile] | 0.45

Other lines, results leading:

IC50 [nM] | Compound
0.8 | CC1(O)CCN(C2CN(c3cc(C#N)cc(Nc4nc(NC5CC5)c5ncc(C#N)n5n4)c3Cl)C2)CC1 [Example 157, 2-((2-chloro-5-cyano-3-(3-(4-hydroxy-4-methyl-1-piperidinyl)-1-azetidinyl)phenyl)amino)-4-(cyclopropylamino)imidazo [2,1-f][1,2,4]triazine-7-carbonitrile]
1.52 | N#Cc1cc(Nc2nc(NC3CC3)c3ncc(C#N)n3n2)c(Cl)c(N2CCN(NCC(N)=O)CC2)c1 [Example 791, 2-((4-(2-chloro-5-cyano-3-((7-cyano-4-(cyclopropylamino)imidazo[2,1-f][1,2,4]triazin-2-yl)amino)phenyl)piperazin-1-yl)amino)acetamide]
0.53 | N#Cc1cc(Nc2nc(NC3CC3)c3ncc(C#N)n3n2)c(Cl)c(N2CCN(CC(N)=O)CC2)c1 [Example 600, 2-[4-(2-chloro-5-cyano-3-{[7-cyano-4-(cyclopropylamino)imidazo[2,1-f][1,2,4]triazin-2-yl]amino}phenyl)piperazin-1-yl]acetamide]
16.9 | N#Cc1cc(Nc2nc(NC3CC3)c3ncc(C#N)n3n2)c(Cl)c(N2CCN(C3CN(S(=O)(=O)CC(F)(F)F)C3)CC2)c1 [Example 507, 2-[(2-chloro-5-cyano-3-{4-[1-(2,2,2-trifluoroethanesulfonyl)azetidin-3-yl]piperazin-1-yl}phenyl)amino]-4-(cyclopropylamino)imidazo[2,1-f][1,2,4]triazine-7-carbonitrile]
2.9 | COC(=O)N1CCC2CN(c3cc(C#N)cc(Nc4nc(NC5CC5)c5ncc(C#N)n5n4)c3Cl)CCC21 (stereo not drawn) [Example 445, methyl 5-(2-chloro-5-cyano-3-((7-cyano-4-(cyclopropylamino)imidazo[2,1-f][1,2,4]triazin-2-yl)amino)phenyl)octahydro-1H-pyrrolo[3,2-c]pyridine-1-carboxylate]
0.83 | N#Cc1cc(Nc2nc(NC3CC3)c3ncc(C#N)n3n2)c(Cl)c(C2(O)CCN(C3COC3)C2)c1 (stereo not drawn) [Example 652, 2-((2-chloro-5-cyano-3-(3-hydroxy-1-(oxetan-3-yl)pyrrolidin-3-yl)phenyl)amino)-4-(cyclopropylamino)imidazo[2,1-f][1,2,4]triazine-7-carbonitrile]
2.59 | C[N+]1([O-])CCN(C2CN(c3cc(C#N)cc(Nc4nc(NC5CC5)c5ncc(C#N)n5n4)c3Cl)C2)CC1 [Example 169, 2-((2-chloro-5-cyano-3-(3-(4-methyl-4-oxido-1-piperazinyl)-1-azetidinyl)phenyl)amino)-4-(cyclopropylamino)imidazo [2,1-f][1,2,4]triazine-7-carbonitrile]
0.57 | CNC1CCN(c2cc(C#N)cc(Nc3nc(NC4CC4)c4ncc(C#N)n4n3)c2Cl)C1 (racemic) [Example 28, (+/−) 2-((2-chloro-5-cyano-3-(3-(methylamino)-1-pyrrolidinyl)phenyl)amino)-4-(cyclopropylamino)imidazo [2,1-f][1,2,4]triazine-7-carbonitrile]
0.48 | COC(=O)N1CCN(c2cc(C#N)cc(Nc3nc(NC4CC4)c4ncc(C#N)n4n3)c2Cl)CC1 [Example 67, methyl 4-(2-chloro-5-cyano-3-((7-cyano-4-(cyclopropylamino)imidazo[2,1-f] [1,2,4]triazin-2-yl)amino)phenyl)-1-piperazinecarboxylate]
0.62 | N#Cc1cc(Nc2nc(NC3CC3)c3ncc(C#N)n3n2)c(Cl)c(N2CCN(CC3CNCCO3)CC2)c1 (stereo not drawn) [Example 597, 2-({2-chloro-5-cyano-3-[4-(morpholin-2-ylmethyl)piperazin-1-yl]phenyl}amino)-4-(cyclopropylamino)imidazo [2,1-f][1,2,4]triazine-7-carbonitrile]
0.96 | CC1(O)CN([C@@H]2CCCN(c3cc(C#N)cc(Nc4nc(NC5CC5)c5ncc(C#N)n5n4)c3Cl)C2)C1 [Example 45, 2-((2-chloro-5-cyano-3-((3R)-3-(3-hydroxy-3-methyl-1-azetidinyl)-1-piperidinyl)phenyl)amino)-4-(cyclopropylamino)imidazo [2,1-f][1,2,4]triazine-7-carbonitrile]
1.48 | CC(CO)N1CC(N2CCN(c3cc(C#N)cc(Nc4nc(NC5CC5)c5ncc(C#N)n5n4)c3Cl)CC2)C1 (stereo not drawn) [Example 608, 2-[(2-chloro-5-cyano-3-{4-[1-(1-hydroxypropan-2-yl)azetidin-3-yl]piperazin-1-yl}phenyl)amino]-4-(cyclopropylamino)imidazo [2,1-f][1,2,4]triazine-7-carbonitrile]
0.66 | COC(=O)N[C@@H]1CN(c2cc(C#N)cc(Nc3nc(NC4CC4)c4ncc(C#N)n4n3)c2Cl)C[C@H]1O (racemic) [Example 9, (+/−) methyl ((3R,4R)-1-(2-chloro-5-cyano-3-((7-cyano-4-(cyclopropylamino)imidazo [2,1-f][1,2,4]triazin-2-yl)amino)phenyl)-4-hydroxy-3-pyrrolidinyl)carbamate]
